Read-outs that look alike come from different tables or passages of the source.
What was measured:
Human Cot = Human Cot (Homo sapiens (Human), UniProt P41279); assay: High Throughput Cot Biochemical Assay
TNFα = assay: Cot Monocyte TNFα Cell Based Assay
[1] = IC50 HTRF, Cot HTRF (TR-FRET) biochemical assay
[2] = Homo sapiens, Monocyte, read-out: EC50 TNF, LPS-stimulated human monocytes, TNFα
[3] = read-out: IC50 HTRF, Cot HTRF (TR-FRET) biochemical assay
[4] = IC50 HTRF, Cot HTRF (TR-FRET KinEASE) biochemical assay, 400 μM ATP
[5] = Homo sapiens, Monocyte, read-out: EC50 TNF, LPS-stimulated human monocytes, TNFα TR-FRET

Human Cot, sequence (P41279 30-397): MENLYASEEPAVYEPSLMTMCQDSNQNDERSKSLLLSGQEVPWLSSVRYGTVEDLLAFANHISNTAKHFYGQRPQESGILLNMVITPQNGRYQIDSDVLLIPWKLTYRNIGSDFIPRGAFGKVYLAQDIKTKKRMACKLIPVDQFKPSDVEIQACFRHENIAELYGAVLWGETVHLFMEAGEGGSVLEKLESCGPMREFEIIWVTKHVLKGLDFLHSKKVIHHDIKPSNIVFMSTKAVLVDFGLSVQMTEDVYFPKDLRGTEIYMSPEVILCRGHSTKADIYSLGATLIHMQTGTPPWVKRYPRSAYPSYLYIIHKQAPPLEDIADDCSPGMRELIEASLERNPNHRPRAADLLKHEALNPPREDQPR

Row | Structure (SMILES) | IC50 (Human Cot; [1]) [nM] | EC50 (TNFα; [2]) [nM] | further results
1 | [2H][C@](Nc1cc(Cl)c2ncc(C#N)c(N[C@H](CC)c3ccccc3)c2c1)(c1ccc(F)nc1)c1c[nH]nn1 [Example 134, 8-chloro-6-(((S)-(6-fluoropyridin-3-yl)(1H-1,2,3-triazol-4-yl)methyl-d)amino)-4-(((R)-1-phenylpropyl)amino)quinoline-3-carbonitrile] | 6 | 197 | –
2 | CC(C)(C)N1CCC(n2cc([C@@H](Nc3cc(Cl)c4ncc(C#N)c(Nc5ccc(F)c(Cl)c5)c4c3)c3ccc4c(c3)NCC4)nn2)CC1 [Example 51, (S)-6-(((1-(1-(tert-butyl)piperidin-4-yl)-1H-1,2,3-triazol-4-yl)(indolin-6-yl)methyl)amino)-8-chloro-4-((3-chloro-4-fluorophenyl)amino)quinoline-3-carbonitrile] | 55 | 1560 | –
3 | CC[C@@H](Nc1c(C#N)cnc2c(Cl)cc(N[C@@H](c3cccnc3)c3cn([C@H]4[C@@H]5CN(C6COC6)C[C@@H]54)nn3)cc12)c1ccccc1 [Example 174, 8-chloro-6-(((S)-(1-((1 R,5S,6s)-3-(oxetan-3-yl)-3-azabicyclo[3.1,0]hexan-6-yl)-1H-1,2,3-triazol-4-yl)(pyridin-3-yl)methyl)amino)-4-(((R)-1-phenylpropyl)amino)quinoline-3-carbonitrile] | – | – | IC50 (Human Cot; [3]): 2 nM; EC50 (TNFα; read-out: EC50 TNF, LPS-stimulated human monocytes, TNFα): 54 nM
4 | [2H][C@](Nc1cc(Cl)c2ncc(C#N)c(NCC(C)(C)C)c2c1)(c1ccc(F)nc1)c1cn(CC(=O)O)nn1 [Example 85, (S)-2-(4-(((8-chloro-3-cyano-4-(neopentylamino)quinolin-6-yl)amino)(6-fluoropyridin-3-yl)methyl-d)-1H-1,2,3-triazol-1-yl)acetic acid] | 4 | > 1000 | –
5 | [2H][C@@](Nc1cc(Cl)c2ncc(C#N)c(NCC(C)(C)C)c2c1)(c1cn(C2CC2)nn1)c1cccnc1F [Example 104, (S)-8-chloro-6-(((1-cyclopropyl-1H-1,2,3-triazol-4-yl)(2-fluoropyridin-3-yl)methyl-d)amino)-4-(neopentyl-amino)quinoline-3-carbonitrile] | 1 | 99 | –
6 | Cn1ccc2c([C@H](Nc3cc(C#N)c4ncc(C#N)c(NCC(C)(C)C)c4c3)c3cn(C4(C)CC4)nn3)cccc2c1=O [Example 879, (S)-6-(((2-methyl-1-oxo-1,2-dihydroisoquinolin-5-yl)(1-(1-methylcyclopropyl)-1H-1,2,3-triazol-4-yl)methyl)amino)-4-(neopentylamino)quinoline-3,8-dicarbonitrile] | – | – | IC50 (Human Cot; [4]): 1 nM; EC50 (TNFα; [5]): 13 nM
7 | N#Cc1cnc2c(Cl)cc(N[C@@H](c3cccnc3)c3cn(CCF)nn3)cc2c1Nc1cnc(F)c(F)c1 [Example 189, (S)-8-chloro-4-((5,6-difluoropyridin-3-yl)amino)-6-(((1-(2-fluoroethyl)-1H-1,2,3-triazol-4-yl)(pyridin-3-yl)methyl)amino)quinoline-3-carbonitrile] | 8 | 1060 | –
8 | COc1nccc2c([C@H](Nc3cc(C#N)c4ncc(C#N)c(NCC(C)(C)C)c4c3)c3cn(C(CF)CF)nn3)cccc12 [Example 825, (S)-6-(((1-(1,3-difluoropropan-2-yl)-1H-1,2,3-triazol-4-yl)(1-methoxylsoquinolin-5-yl)methyl)amino)-4-(neopentylamino)quinoline-3,8-dicarbonitrile] | – | – | IC50 (Human Cot; read-out: IC50 HTRF, Cot HTRF (TR-FRET KinEASE) biochemical assay, 400 μM ATP): 7 nM; EC50 (TNFα; read-out: EC50 TNF, LPS-stimulated human monocytes, TNFα TR-FRET): 113 nM
9 | Cn1cnc(C(Nc2cc(Cl)c3ncc(C#N)c(Nc4ccc(F)c(Cl)c4)c3c2)c2cccnc2)c1 (stereo not shown) [Example 403, 8-chloro-4-((3-chloro-4-fluoro-phenyl)amino)-6-(((1-methyl-1H-imidazol-4-yl)(pyridin-3-yl)methyl)-amino)quinoline-3-carbonitrile] | – | 290 | IC50 (Human Cot; [3]): 9 nM
10 | CCN1CCC(n2cc([C@@H](Nc3cc(Cl)c4ncc(C#N)c(Nc5ccc(F)c(Cl)c5)c4c3)c3ccc(Cl)nc3)nn2)CC1 [Example 379, (S)-8-chloro-4-((3-chloro-4-fluoro-phenyl)amino)-6-(((6-chloropyridin-3-yl)(1-(1-ethylpiperidin-4-yl)-1H-1,2,3-triazol-4-yl)methyl)amino)quinoline-3-carbonitrile] | 6 | 179 | –
11 | Cc1ncsc1[C@H](Nc1cc(Cl)c2ncc(C#N)c(Nc3cccc(Cl)c3F)c2c1)c1cn(C2CCN(C(C)(C)C)CC2)nn1 [Example 253, (R)-6-(((1-(1-(tert-butyl)piperidin-4-yl)-1H-1,2,3-triazol-4-yl)(4-methylthiazol-5-yl)methyl)amino)-8-chloro-4-((3-chloro-2-fluorophenyl)amino)quinoline-3-carbonitrile] | 4 | 66 | –
12 | [2H]C(Nc1cc(Cl)c2ncc(C#N)c(N[C@H](CC)c3ccccc3)c2c1)(c1cn(C2CC2)nn1)c1ccc(Cl)nc1C (stereo partly drawn) [Example 122, 8-chloro-6-(((6-chloro-2-methylpyridin-3-yl)(1-cyclopropyl-1H-1,2,3-triazol-4-yl)methyl-d)amino)-4-(((R)-1-phenylpropyl)amino)quinoline-3-carbonitrile] | 6 | 240 | –
13 | Cn1ccc2c([C@H](Nc3cc(Cl)c4ncc(C#N)c(NCC(C)(C)C)c4c3)c3cn(C45CCC(CC4)CC5)nn3)cccc2c1=O [Example 939, (S)-6-(((1-(bicyclo[2.2.2]octan-1-yl)-1H-1,2,3-triazol-4-yl)(2-methyl-1-oxo-1,2-dihydroisoquinolin-5-yl)methyl)amino)-8-chloro-4-(neopentylamino)quinoline-3-carbonitrile] | – | – | IC50 (Human Cot; [4]): 18 nM; EC50 (TNFα; [5]): 104 nM
14 | Cc1ncsc1[C@H](Nc1cc(Cl)c2ncc(C#N)c(N[C@H](C)c3ccccc3)c2c1)c1cn(C2CCN(C(C)(C)C)CC2)nn1 [Example 240, 6-(((R)-(1-(1-(tert-butyl)piperidin-4-yl)-1H-1,2,3-triazol-4-yl)(4-methylthiazol-5-yl)methyl)amino)-8-chloro-4-(((R)-1-phenylethyl)amino)quinoline-3-carbonitrile] | 16 | 631 | –

More lines, main results first:

Row | IC50 (Human Cot; [1]) [nM] | EC50 (TNFα; [2]) [nM] | Structure (SMILES) | further results
15 | 4 | 40 | CC(C)(C)CNc1c(C#N)cnc2c(Cl)cc(N[C@H](c3cn(C4(C(F)F)CC4)nn3)c3ccc(F)c4cnccc34)cc12 [Example 652, (S)-8-chloro-6-(((1-(1-(difluoromethyl)cyclopropyl)-1H-1,2,3-triazol-4-yl)(8-fluoroisoquinolin-5-yl)methyl)amino)-4-(neopentylamino)quinoline-3-carbonitrile] | –
16 | 2 | 84 | CC(C)(C)CNc1c(C#N)cnc2c(C#N)cc(N[C@H](c3cn(C4(C#N)CC4)nn3)c3cccc4cnccc34)cc12 [Example 580, (S)-6-(((1-(1-cyanocyclopropyl)-1H-1,2,3-triazol-4-yl)(isoquinolin-5-yl)methyl)amino)-4-(neopentylamino)-quinoline-3,8-dicarbonitrile] | –
17 | 2 | 60 | Cc1nc(F)ccc1[C@H](Nc1cc(Cl)c2ncc(C#N)c(NCC(C)(C)C)c2c1)c1cn(C2(C)CC2)nn1 [Example 480, (S)-8-chloro-6-(((6-fluoro-2-methylpyridin-3-yl)(1-(1-methylcyclopropyl)-1H-1,2,3-triazol-4-yl)methyl)amino)-4-(neopentylamino)-quinoline-3-carbonitrile] | –
